Assay type in all cases: functional
The subject of assay [1] is B16-F10. Nature of the assay: Immunomodulatory activity in mouse B16-F10 cells allografted in C57 mouse assessed as increase in CD3-positive CD4-positive cells at 10 mg/kg, ip administered consecutively for 14 days (reference value: 8.35 %). Particulars: time 14 day.
For assay [2], the system named is B16-F10. Nature of the assay: Antitumor activity against mouse B16-F10 cells allografted in C57 mouse assessed as tumor growth inhibition at 10 mg/kg, ip administered consecutively for 14 days. Particulars: B16-F10, 336 h, time 14 day, read-out: TGI.
Assay [3] concerns B16-F10. Nature of the assay: Induction of apoptosis in mouse B16-F10 cells assessed as early apoptotic cells at 10 nM incubated for 48 hrs by annexinV-FITC/PI staining based flow cytometry (reference value: 4.25 %). (In general: A flow cytometer gives signals particle by particle.)
In assay [4] the test system is B16-F10. As to the kind of experiment: Immunomodulatory activity in mouse B16-F10 cells allografted in C57 mouse assessed as decrease in PD-L1 level at 10 mg/kg, ip administered consecutively for 14 days in presence of NP-19 relative to control. Particulars: time 14 day. Also on record: scale not given: the % may be the effect or the level left.
Assay [5] deals with B16-F10. As to the kind of experiment: Inhibition of cell migration in mouse B16-F10 cells assessed as wound area recovery upto 50 nM incubated for 24 hrs by wound healing assay relative to control. Also on record: scale not given: the % may be the effect or the level left. To be noted: up to 50 nM.
In assay [6] the test system is B16-F10. As to the kind of experiment: Induction of cell cycle arrest in mouse B16-F10 cells assessed as accumulation at G2 phase at 10 nM incubated for 24 hrs by PI staining based flow cytometry (reference value: 23.04 %).
For assay [7], the system named is B16-F10. As to the kind of experiment: Inhibition of cell migration in mouse B16-F10 cells assessed as wound area ratio at 25 nM incubated for 24 hrs by wound healing assay relative to control.
In assay [8] the test system is B16-F10. As to the kind of experiment: Induction of apoptosis in mouse B16-F10 cells assessed as late apoptotic cells at 25 nM incubated for 48 hrs by annexinV-FITC/PI staining based flow cytometry (reference value: 2.06 %).
Assay [9] relates to B16-F10. As to the kind of experiment: Induction of apoptosis in mouse B16-F10 cells assessed as viable cells at 50 nM incubated for 48 hrs by annexinV-FITC/PI staining based flow cytometry (reference value: 93.6 %). To be noted: read-out: Activity.
Assay [10] concerns B16-F10. As to the kind of experiment: Induction of apoptosis in mouse B16-F10 cells assessed as necrotic cells at 10 nM incubated for 48 hrs by annexinV-FITC/PI staining based flow cytometry (reference value: 0.064 %).
Assay [11] deals with B16-F10. Nature of the assay: Inhibition of cell migration in mouse B16-F10 cells assessed as wound area ratio at 10 nM incubated for 24 hrs by wound healing assay relative to control.
In assay [12] the test system is B16-F10. As to the kind of experiment: Antitumor activity against mouse B16-F10 cells allografted in C57 mouse assessed as tumor growth inhibition at 10 mg/kg, ip administered consecutively for 14 days in presence of NP-19. To be noted: B16-F10, 336 h, time 14 day, read-out: TGI.

Experimental findings from ChEMBL document CHEMBL5325396, “Discovery of Novel Acridane-Based Tubulin Polymerization Inhibitors with Anticancer and Potential Immunomodulatory Effects” (J Med Chem, 2023) are described below.

As to `COc1ccc2c(c1F)Cc1ccccc1N2C(=O)c1cc(OC)c(OC)c(OC)c1`, the Activity with B16-F10 [1] is on record as 10.1%; in the assay with B16-F10 [3], 5.7%; with B16-F10 [4] it was ~60%; with B16-F10 [5], 59.63%; in the assay with B16-F10 [6], 24.07%; with B16-F10 [8] it was 6.63%. In addition, in the assay with B16-F10 [10], the Activity is recorded as 0.133%. Also, the inhibition in vivo at 10 mg/kg with B16-F10 [2] was 65.1%; in the assay on B16-F10 [12] it was 77.6%. Also, the Ratio stood at 26.05% with B16-F10 [7] and 31.52% with B16-F10 [11]. Also, the viability at 0.05 µM in the assay on B16-F10 [9] was 49.3%.
